Structures can show the parent of a compound that is named as a salt.
Test system: not given

| Structure (SMILES) | melting point [°C] |
| --- | --- |
| O=S(=O)(c1cccc(F)c1)c1cn(CC2CCCN2)c2ncccc12 (stereo not shown) (as salt: hydrochloride) [Example 11] | 181 to 182 |
| O=S(=O)(c1cccc(F)c1)c1cn(CC2CCCN2Cc2ccccc2)c2ncccc12 (stereo not shown) (as salt: hydrochloride) [Example 10] | 128 to 129 |
| O=S(=O)(c1ccccc1)c1cn(CC2CCCN2Cc2ccccc2)c2ncccc12 (stereo not shown) (as salt: hydrochloride) [Example 9] | 218 to 220 |
| CN1CCCC1Cn1cc(S(=O)(=O)c2cccc(F)c2)c2cccnc21 (stereo not shown) (as salt: hydrochloride) [Example 12] | 208 to 209 |
| O=S(=O)(c1ccc(Cl)s1)c1cn(CC2CCCN2)c2ncccc12 (stereo not shown) (as salt: hydrochloride) [Example 15] | 106 to 107 |
| O=S(=O)(c1cn(CC2CCCN2)c2ncccc12)c1c(Cl)nc2sccn12 (stereo not shown) (as salt: hydrochloride) [Example 14] | 246 to 247 |
| O=S(=O)(c1cn(CC2CCCN2Cc2ccccc2)c2ncccc12)c1c(Cl)nc2sccn12 (stereo not shown) [Example 13] | 102 to 103 |

Molecular target: human cloned 5-HT6 receptors (Homo sapiens, UniProt P50406)
Sequence (P50406 whole entry): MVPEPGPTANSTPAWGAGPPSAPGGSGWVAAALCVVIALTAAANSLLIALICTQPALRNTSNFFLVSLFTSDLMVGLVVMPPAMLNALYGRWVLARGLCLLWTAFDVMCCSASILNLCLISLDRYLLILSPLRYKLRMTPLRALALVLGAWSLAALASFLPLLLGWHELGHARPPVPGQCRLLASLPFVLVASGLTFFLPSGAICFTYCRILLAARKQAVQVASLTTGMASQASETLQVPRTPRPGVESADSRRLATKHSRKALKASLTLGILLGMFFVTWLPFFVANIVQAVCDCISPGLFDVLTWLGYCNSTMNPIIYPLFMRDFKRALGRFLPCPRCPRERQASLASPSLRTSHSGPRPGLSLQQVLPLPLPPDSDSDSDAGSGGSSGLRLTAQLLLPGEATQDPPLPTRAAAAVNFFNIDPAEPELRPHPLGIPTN

| Structure (SMILES) | Ki [nM] |
| --- | --- |
| O=S(=O)(c1cccc(Cl)c1)c1cn(CC2CCCN2Cc2ccccc2)c2ncccc12 (stereo not shown) [Example 6, 1-[(1-Benzylpyrrolidin-2-yl)methyl]-3-(3-chlorophenylsulfonyl)-1H-pyrrolo[2,3-b]pyridine] | 132 |
| O=S(=O)(c1ccccc1)c1cn(C[C@H]2CCCN2)c2ncccc12 [Example 3, 3-(Phenylsulfonyl)-1-[(2R)-pyrrolidin-2-ylmethyl]-1H-pyrrolo[2,3-b]pyridine Hydrochloride] | 12 |
| O=S(=O)(c1ccccc1)c1cn(CC2CCCN2Cc2ccccc2)c2ncccc12 (stereo not shown) [Example 9] | 163 |
| O=S(=O)(c1ccccc1)c1cn(C[C@@H]2CCCN2)c2ncccc12 [Example 4, 3-(Phenylsulfonyl)-1-[(2S)-pyrrolidin-2-ylmethyl]-1H-pyrrolo[2,3-b]pyridine Hydrochloride] | 66 |
| O=S(=O)(c1cn(CC2CCCN2)c2ncccc12)c1c(Cl)nc2sccn12 (stereo not shown) [Example 14] | 2 |
| CN1CCCC1Cn1cc(S(=O)(=O)c2cccc(Cl)c2)c2cccnc21 (stereo not shown) [Example 8, 3-(3-Chlorophenylsulfonyl)-1-[(1-methylpyrrolidin-2-yl)methyl]-1H-pyrrolo[2,3-b]pyridine Hydrochloride] | 7 |
| O=S(=O)(c1cccc(F)c1)c1cn(CC2CCCN2)c2ncccc12 (stereo not shown) [Example 11] | 9 |
| O=S(=O)(c1cccc(Cl)c1)c1cn(CC2CCCN2)c2ncccc12 (stereo not shown) [Example 7, 3-(3-Chlorophenylsulfonyl)-1-(pyrrolidin-2-ylmethyl)-1H-pyrrolo[2,3-b]pyridine] | 3 |
| O=S(=O)(c1ccc(Cl)s1)c1cn(CC2CCCN2)c2ncccc12 (stereo not shown) [Example 15] | 7 |
| CN1CCCC1Cn1cc(S(=O)(=O)c2cccc(F)c2)c2cccnc21 (stereo not shown) [Example 12] | 6 |
| O=S(=O)(c1cccc(F)c1)c1cn(CC2CCCN2Cc2ccccc2)c2ncccc12 (stereo not shown) [Example 10] | 174 |
| O=S(=O)(c1cn(CC2CCCN2Cc2ccccc2)c2ncccc12)c1c(Cl)nc2sccn12 (stereo not shown) [Example 13] | 57 |

Source: patent publication US7411064B2, “1-Heterocyclylalkyl-3-sulfonylazaindole or -azaindazole derivatives as 5-hydroxytryptamine-6 ligands” (Wyeth, priority 2002, dated 2008)
